For 14 molecules, IC50 results are on record in US20050026994A1, “Use of 2, 4diamino-3-hydroxycarboxylic acid derivatives as proteasome inhibitors” (priority 2000, published 2005).

The assay concerns the target T1, purified human placenta 20S proteasome (Homo sapiens, UniProt P28074).
T1 construct: purified human placenta 20S proteasome; tissue Diabetes Forschungsinstitut, Düsseldorf, Germany; host or cells: human placenta
Nature of the assay: Inhibition of the chymotrypsin-like activity of the 20S proteasome (Suc-LLVY-AMC hydrolysis, fluorescence). The format is biochemical. As to conditions: substrate Suc-LLVY-AMC 80 μM, 60 min preincubation at room temperature, incubation 3-24 h at 37° C. How it is done: It is based on the hydrolysis of the fluorogenic peptide Suc-LLVY-AMC (Succinyl-leucine-leucine-valine-tyrosine-7-amino-4-methylcoumarin), which is cleaved exclusively at the Y-AMC bond by the 20S proteasome. Hydrolysis of this peptide is accompanied by an increase in fluorescence intensity (λex355 nm, λem460 nm) due to release of the […] that accompanies diffusion apart of the hydrolysis product Suc-LLVY.
2 μl of a 1 mM solution of a test compound in DMSO (dimethylsulfoxide, 20 μM final concentration in the well) are preincubated for 60 min at room temperature in black 96-well microtiter plates together with a mixture of 1 μl purified human placenta 20S proteasome (Diabetes Forschungsinstitut, Düsseldorf, Germany; about 100 ng proteasome, depending on the proteasome preparation) and 47 μl buffer-Ca (5 mM CaCl2, 20 mM Trs/HCl (Tris(hydroxymethyl)-amino-methane hydrochloride) pH 8.0). 3 pd of a 2.67 mM solution of Suc-LLVY-AMC (Bachem, Switzerland) in DMSO (80 μM final concentration in the well) and 47 μl buffer-Ca are mixed and added. The resulting mixture is incubated for 3-24 h at 37° C. If desired, proteolysis of the substrate can be stopped by addition of 50 μl stop solution (100 mM monochloroacetic acid, 130 mM NaOH, 100 mM acetic acid, pH=4.3). The fluorescence is monitored with a FLUOROSKAN ASCENT™ microtiter plate reader.
To each measure series two control experiments have to be carried out • 1.) 0% value: 2 μl DMSO are used in the above described assay instead of 2 μl of a 1 mM solution of a test compound in DMSO and 48 μl buffer-Ca instead of a mixture of 47 μl buffer-Ca and 1 μl purified proteasome. • 2.) 100% value: in the above described assay 2 μl DMSO are used instead of 2 μl of a 1 mM solution of the test compound in DMSO. Calculation [formula]
The IC50 value is defined as that concentration of a compound at which the remaining activity is 50%.
What is called IC50 is the point on the concentration scale where inhibition reaches its midpoint. A lower IC50 goes with higher potency. Take `COc1ccc(CN[C@@H](C(=O)N[C@H](C(=O)NCc2ccc(OC)cc2O)C(C)C)[C@@H](O)[C@H](Cc2ccccc2)NC(=O)[C@@H](NC(=O)OCc2ccccc2)C(C)(C)C)cc1` [Example 1]: the IC50 came out at 900 nM. That is a sub-micromolar value.

Take `COc1ccc(CNC(C(=O)NC(C(=O)NCc2ccc(OC)cc2O)C(C)C)C(O)C(Cc2ccccc2)NC(=O)C(NC(=O)OCc2cccc(N)c2)C(C)(C)C)cc1` (centres unmarked) [Example 13, {1-[1-Benzyl-2-hydroxy-3-[1-(2-hydroxy-4-methoxy-benzylcarbamoyl)-2-meth-propylcarbamoyl]-3-(4-methoxy-benzylamino)-propylcarbamoyl]-2,2-dimethyl-propyl}-carbamic acid 3-amino-benzyl ester]: the IC50 was found to be 600 nM. Then `COC(=O)CCC(NC(=O)C(NCc1ccc(OC)cc1)C(O)C(Cc1ccccc1)NC(=O)C(NC(=O)OCc1ccccc1)C(C)C)C(=O)NCc1ccc(OC)cc1O` (centres unmarked) [Example 2, 4-[4-(2-Benzyloxycarbonylamino-3-methyl-butyrylamino)-3-hydroxy-2-(4-methoxy-benzylamino)-5-phenyl-pentanoylamino]-4-(2-hydroxy-4-methoxy-benzyl-carbomoyl)-butyric acid methyl ester], with 400 nM. Then `COc1ccc(CNC(C(=O)NC(C(=O)NCc2ccc(OC)cc2O)C(C)C)C(O)C(Cc2ccccc2)NC(=O)C(NC(=O)OCc2ccncc2)C(C)(C)C)cc1` (centres unmarked) [Example 6, {1-[1-Benzyl-2-hydroxy-3-[1-(2-hydroxy-4-methoxy-benzylcarbamoyl)-2-methyl-propylcarbamoyl]-3-(4-methoxy-benzylamino)-propylcarbamoyl]-2,2-dimethyl-propyl}-carbamic acid pyridin-4-ylmethyl ester], with 2200 nM; and `COc1ccc(CN[C@@H](C(=O)N[C@H](C(=O)NCc2ccc(OC)cc2O)C(C)C)[C@@H](O)[C@H](Cc2ccccc2)NC(=O)[C@@H](NC(=O)OCC2CCCCC2)C(C)(C)C)cc1` [Example 15, {(S)-1-[(1S,2S,3R)-1-Benzyl-2-hydroxy-3-[(S)-1-(2-hydroxy-4-methoxy-benzylcarbamoyl)-2-methyl-propylcarbamoyl]-3-(4-methoxy-benzylamino)-propylcarbamoyl]-2,2-dimethyl-propyl}-carbamic acid cyclohexylmethyl ester], with 1000 nM. Then `COc1ccc(CNC(C(=O)NC(C(=O)NCc2ccc(OC)cc2O)C(C)C)C(O)C(Cc2ccccc2)NC(=O)C(NC(=O)OCc2ccccc2)C(C)C)cc1` (centres unmarked) [Example 8, {1-[1-Benzyl-2-hydroxy-3-[1-(2-hydroxy-4-methoxy-benzylcarbamoyl)-2-methyl-propylcarbamoyl]-3-(4-methoxy-benzylamino)-propylcarbamoyl]-2-methyl-propyl}-carbamic acid benzyl ester], with 3300 nM; and `COc1ccc(CNC(C(=O)NC(C(=O)NCc2ccc(OC)cc2O)C(C)C)C(O)C(Cc2ccccc2)NC(=O)C(NC(=O)OCc2ccc3ccccc3c2)C(C)(C)C)cc1` (centres unmarked) [Example 5, {1-[1-Benzyl-2-hydroxy-3-[1-(2-hydroxy-4-methoxy-benzylcarbamoyl)-2-methyl-propylcarbamoyl]-3-(4-methoxy-benzylamino)-propylcarbamoyl]-2,2-dimethyl-propyl}-carbamic acid naphthalen-2-ylmethyl ester], with 5200 nM; and `COc1ccc(CNC(C(=O)NC(C(=O)NCc2ccc(OC)cc2O)C(C)C)C(O)C(Cc2ccccc2)NC(=O)C(NC(=O)OC(C)(C)C)C(C)(C)C)cc1` (centres unmarked) [Example 3, {1-[1-Benzyl-2-hydroxy-3-[1-(2-hydroxy-4-methoxy-benzylcarbamoyl)-2-methyl-propylcarbamoyl]-3-(4-methoxy-benzylamino)-propylcarbamoyl]-2,2-dimethyl-propyl}-carbamic acid tert-butyl ester], with 26000 nM.

Consider `COc1ccc(CNC(C(=O)NC(C(=O)NCc2ccc(OC)cc2O)C(C)C)C(O)C(Cc2ccccc2)NC(=O)C(NC(=O)OCc2cccc(C)c2)C(C)(C)C)cc1` (centres unmarked) [Example 11, {1-[1-Benzyl-2-hydroxy-3-[1-(2-hydroxy-4-methoxy-benzylcarbamoyl)-2-methyl-propylcarbamoyl]-3-(4-methoxy-benzylamino)-propylcarbamoyl]-2,2-dimethyl-propyl}-carbamic acid 3-methylbenzyl ester], for which half-maximal inhibition (IC50) required 500 nM. Then `COc1ccc(CNC(C(=O)NC(C(=O)NCc2ccc(OC)cc2O)C(C)C)C(O)C(Cc2ccccc2)NC(=O)C(NC(=O)OCc2cccc3ccccc23)C(C)(C)C)cc1` (centres unmarked) [Example 4, {1-[1-Benzyl-2-hydroxy-3-[1-(2-hydroxy-4-methoxy-benzyl-carbamoyl)-2-methyl-propylcarbamoyl]-3-(4-methoxy-benzylamino)-propylcarbamoyl]-2,2-dimethyl-propyl}-carbamic acid naphthalen-1-ylmethyl ester], with 2000 nM; and `COc1ccc(CNC(C(=O)NC(C(=O)NCc2ccc(OC)cc2O)C(C)C)C(O)C(Cc2ccccc2)NC(=O)C(NC(=O)OCc2cc(C)cc(C)c2)C(C)(C)C)cc1` (centres unmarked) [Example 14, {1-[1-Benzyl-2-hydroxy-3-[1-(2-hydroxy-4-methoxy-benzyl-carbamoyl)-2-methyl-propylcarbamoyl]-3-(4-methoxy-benzylamino)-propylcarbamoyl]-2,2-dimethyl-propyl}-carbamic acid 3,5-dimethyl-benzyl ester], with 1100 nM. Then `COc1ccc(CNC(C(=O)NC(C(=O)NCc2ccc(OC)cc2O)C(C)C)C(O)C(Cc2ccccc2)NC(=O)C(NC(=O)CCc2cccc(N)c2)C(C)(C)C)cc1` (centres unmarked) [Example 12, 4-{2-[3-(3-Amino-phenyl)-propionylamino]-3,3-dimethyl-butyrylamino}-3-hydroxy-2-(4-methoxy-benzylamino)-5-phenyl-pentanoic acid [1-(2-hydroxy-4-methoxy-benzylcarbamoyl)-2-methyl-propyl]-amide], with 600 nM; and `COc1ccc(CNC(C(=O)NC(C(=O)NCc2ccc(OC)cc2O)C(C)C)C(O)C(Cc2ccccc2)NC(=O)C(NC(=O)Cc2cccc3ccccc23)C(C)(C)C)cc1` (centres unmarked) [Example 10, 4-[3,3-Dimethyl-2-(2-naphthalen-1-yl-acetylamino)-butyrylamino]-3-hydroxy-2-(4-methoxy-benzylamino)-5-phenyl-pentanoic acid [1-(2-hydroxy-4-methoxy-benzyl-carbamoyl)-2-methyl-propyl]-amide], with 100 nM; and `COc1ccc(CNC(C(=O)NC(C(=O)NCc2ccc(OC)cc2O)C(C)C)C(O)C(Cc2ccccc2)NC(=O)CNC(=O)OCc2ccccc2)cc1` (centres unmarked) [Example 7, {[1-Benzyl-2-hydroxy-3-[1-(2-hydroxy-4-methoxy-benzylcarbamoyl)-2-methyl-propylcarbamoyl]-3-(4-methoxy-benzylamino)-propylcarbamoyl]-methyl}-carbamic acid benzyl ester], with 9000 nM.
